Type in all cases: cell-based
Experiment [1] relates to J774 macrophage cell line. The experiment in a line: Alamar Blue macrophage J774 viability assay. The conditions noted are these: Mus musculus, J774, 72 h. The protocol:
Initial screening of candidate compounds was performed using viability assays, on cultures of the macrophage cell line J774, which have been used before as a model system for osteoclast survival (see, e.g., Luckman et al., 1998). The assays are based on the survival of the J774 macrophage cell line; macrophages are closely related to osteoclasts, and contain similar high levels of esterase activity.
J774 cells were plated at 10^4 cells per well in 150 μL αMEM (α Modified Eagle Medium) in 96-well plates and grown overnight. The next day, compounds were added to the cultures, and culture was continued for another 72 hours. At the end of the culture period cell survival was determined using an Alamar Blue assay as previously described (see, e.g., Nociari et al., 1998).
Alamar Blue is an oxidation-reduction sensitive indicator. The dye itself is in the oxidised state, which is blue and non-fluorescent. The dye can accept electrons from reducing species, such as NADPH and FADH, to form a reduced dye species, which is red and fluorescent. Thus the transformation from oxidised form to reduced form can be measured by fluorimetric or colourimetric means. For fluorescence measurements, 530-560 nm excitation and 590 nm emission wavelengths are typically used. For colourimetric measurements, absorbance is measured at 570 nm (reduced form) and 600 nm (oxidised form) and a simple calculation performed to determine the relative quantities of the two species.
A high ratio of the reducing species, NADPH and FADH, to the corresponding oxidised species, NADP and FAD, is an indicator that cells are proliferating and viable. A low ratio indicates cells that are quiescent or non-viable.
Briefly, Alamar Blue (Biosource International) was added undiluted to the each well (1:10 v/v, 15 μL). The plate was incubated at 37° C. for 3-4 hours and the fluorescence was measured at 570 nm, with a 25 nm bandwidth. A high reading indicated cells with normal viability, and a low reading indicates cells that have been damaged and are no longer proliferating normally. The controls gave a high fluorescence reading, indicating a high number of live, healthy cells. A potent test compound gave a low fluorescence reading. The average results for each test compound (n=5) were expressed as a percent (%) of the average control value.
Addition of Compounds. All of the compounds studied were made up as 100 mM solutions in DMSO. These stock solutions were then diluted 100 or 1000× in culture medium (αMEM). From these 1 mM or 100 μM solutions, convenient quantities (3-15 μL) were added directly to the wells so as to give the desired final compound concentration.
A general note: Alamar Blue is a resazurin reagent that responds to reducing activity.

Another experiment has as its system osteoclast precursors. Briefly: Murine co-culture system, osteoclast formation (osteoclast number by TRAcP staining). The conditions noted are these: Mus musculus, after 72 hours exposure, FIG. 2, read-out: IC50 against osteoclast precursors (FIG. 2). The protocol: The first model system, the murine co-culture system, studies the formation of osteoclasts from precursors present in the bone marrow. The number of osteoclasts and the amount of dentine resorption was measured.
Osteoclast formation and activity was studied using an adaptation (see, e.g., van't H of & Ralston, 1997) of the osteoblast-bone marrow co-culture assay originally described by Takahashi et al., 1988.
Co-Culture Methods. Co-culture (see, e.g., Van't H of et al., 1997) is a method to study the formation of osteoclasts from their precursors. In this assay, osteoblasts were obtained from the calvaria of 2-3 day old neonatal mice. […] At the end of the culture osteoclasts were identified by TRAcP staining and the resorption activity was measured in the same manner as for rabbit osteoclasts.
Osteoblast Plating. […] The cells were counted and then seeded in a 96 well plated containing dentine slices, at 8×10^3 cells per well in 100 μl medium containing 1000× dilution of stock 1,25-dihydroxyvitamin D3 (final conc. 10 nM/well) to stimulate the expression of RANKL and cultured overnight. […]
More specifically, the femurs and tibia were dissected from 2-3 adult C57/bl6 mice (3-6 months old) and the surrounding tissue was removed. […] The bone marrow cells were counted and then added to the 96 well plate containing the osteoblasts at 2×10^5 cells/well in 50 μL medium. […]

Another experiment has as its system osteoblasts. Briefly: Alamar Blue mouse osteoblast assay. Conditions: osteoblast survival, after 72 hours exposure, FIG. 1, read-out: IC50 against osteoblasts (FIG. 1). The protocol:
Osteoblasts were isolated as described above and plated at 10^4 cells/well in 96-well plates in 100 μL of […]MEM supplemented with 10% FCS and antibiotics. Test compounds were added after 24 hours and left for 72 hours. Cell viability was assessed using the Alamar Blue assay as described for J774 macrophages. Alamar Blue (Biosource International) was added undiluted to each well (1:10 v/v, 10 μL). The plate was incubated at 37° C. for 3 to 4 hours and the fluorescence was measured at 570 nm, with a 25 nm bandwidth.
Osteoblast Isolation. Briefly, osteoblasts were isolated from the calvarial bones of 2-day-old mice by sequential collagenase digestion (type I collagenase, Sigma) and cultured in αMEM supplemented with 10% FCS (foetal calf serum) and penicillin and streptomycin at 37° C. in 5% CO2.
More specifically, osteoblasts were obtained from a collagenase digestion of the calvaria (skull bones) of 2-3 day old neo-natal C57/bl6 mice. At this stage in their development these are soft and easily removed. The calvaria from 5-6 mice were carefully dissected and washed in HBSS (Hank's balanced saline solution). The calvaria were placed in a 15 mL tube and shaken at 37° C. in 4 mL collagenase (10 mg/ml) for 10 minutes. This removes the excess unwanted tissue. The liquid was disposed of and a further 4 mL collagenase (10 mg/ml) added to the tube. […]

[2] abbreviates: 72 hours culture with compound, Alamar Blue, read-out: IC50 (J774).

The text below walks through data of patent US7964643B2, “Aryl alkyl sulfonamides as therapeutic agents for the treatment of bone conditions” (The University Court of the University of Aberdeen, priority 2004, dated 2011).

Read-outs that look alike come from different tables or passages of the source.

Regarding `Cc1cc(S(=O)(=O)NCCCCO)ccc1-c1ccc(F)cc1F` [ABD-295, 2′,4′-Difluoro-2-methylbiphenyl-4-sulfonic acid-(4-hydroxybutyl)-amide], the concentration for half-maximal inhibition (IC50) in experiment [1] (setting [2]) came out at 0.8 ± 0.1 µM; with osteoclast precursors it was 0.2 µM.
As for `O=S(=O)(NCCCCO)c1ccc(-c2ccccc2)cc1` [ABD-155, Biphenyl-4-sulfonic acid-(4-hydroxybutyl)-amide], the IC50 in experiment [1] (setting [2]) was 18 ± 3 µM; in experiment [1] (after 72 hours exposure, FIG. 1, read-out: IC50 against J774 macrophages (FIG. 1)), less than 20 µM; in the experiment on osteoblasts, more than 100 µM.

The IC50 is the midpoint of a concentration-inhibition curve.
